In this assay the target is human αvβ3 receptor (Homo sapiens, UniProt P05106+P06756). The experiment in a line: Kistrin/Vitronectin Receptor (αvβ3) ELISA test. In kind it is binding. As for the experimental part: Kistrin/Vitronectin Receptor (αvβ3) ELISA Test Protocol:
96-well MaxiSorp plates are coated overnight at […] with 100 μl of Kistrin at 1 μg/ml (dilution in coating buffer: 0.05M (carbonate)/NaOH pH 9.6. The next day, the wells are emptied and the ligands (kistrin) are then fixed (fixation buffers: PBS containing 0.5% BSA (pH=7.4)) for 1 hour at ambient temperature under gentle agitation of 125 rpm. The wells are washed six times (washing buffer: PBS containing 0.05% Tween 20 (pH 7.7) then the following is added per well and in this order:
40 μl of incubation buffer
10 μl of the dilution of the product to be tested (the products are diluted in a 50:50 DMSO/water mixture)
50 μl of human αvβ3 receptor (cf Pytel et al. Methods Enzymol. (1987) 144 (Dilution in incubation buffer, adapted according to the batch of receptor and according to the ligand). The ligand, the αvβ3 receptor and the products to be studied are incubated for 3 hours at ambient temperature with gentle agitation of 125 rpm.
The wells are again washed six times, then incubated for 2 hours at ambient temperature with gentle agitation of 125 rpm, in the presence of 100 μl of anti-receptor antibody coupled to a peroxidase (The 4B12-HRP antibody is diluted in incubation buffer (50 mM TRIS pH 7.4; 0.5% BSA; 0.05% Tween 20; 1 mM MnCl2; 50 μM CaCl2; 50 μM MgCl2; 100 mM NaCl). The dilution is to be adapted according to the batch of receptor.
The wells are then washed six times before measurement of the ligand-receptor bond is carried out using a peroxidase developer kit (TBM Microwell Peroxidase Substrate System Kirkegaard; Ref cat 50-76-00).
This kit contains a flask A of substrate (3,3′,5,5′-tetramethylebenzidine at 0.4 g/l) and a flask B (H2O2 to 0.02% in Citrate/Citric acid). Extemporaneously, one volume of A is mixed with one volume of B, then the reaction mixture is distributed at a rate of 100 μl/wells.
The enzymatic reaction develops between 6 to 10 minutes for Kistrin/αvβ3 then its development is stopped by the addition of 100 μl of 1M phosphoric acid. The optical density is determined at 450 nm.
Expression of the results
The following curve is plotted: the bond percentage as a function of the logarithm of each concentration of the tested product.
For each product IC50 is determined according to the following formula: IC50=(B0+Bmin)/2
B0=Maximum bond in the absence of any product
Bmin=Minimum bond in the presence of the highest concentration of the product.

Where [1] appears, read: Kistrin-coated plates, human αvβ3 receptor, 3 hours at ambient temperature, OD 450 nm, read-out: K/VnR IC50.

The structures appear in SMILES notation. Read-outs that look alike come from different tables or passages of the source.

Chain of human αvβ3 receptor (P06756 31-889 limits assumed): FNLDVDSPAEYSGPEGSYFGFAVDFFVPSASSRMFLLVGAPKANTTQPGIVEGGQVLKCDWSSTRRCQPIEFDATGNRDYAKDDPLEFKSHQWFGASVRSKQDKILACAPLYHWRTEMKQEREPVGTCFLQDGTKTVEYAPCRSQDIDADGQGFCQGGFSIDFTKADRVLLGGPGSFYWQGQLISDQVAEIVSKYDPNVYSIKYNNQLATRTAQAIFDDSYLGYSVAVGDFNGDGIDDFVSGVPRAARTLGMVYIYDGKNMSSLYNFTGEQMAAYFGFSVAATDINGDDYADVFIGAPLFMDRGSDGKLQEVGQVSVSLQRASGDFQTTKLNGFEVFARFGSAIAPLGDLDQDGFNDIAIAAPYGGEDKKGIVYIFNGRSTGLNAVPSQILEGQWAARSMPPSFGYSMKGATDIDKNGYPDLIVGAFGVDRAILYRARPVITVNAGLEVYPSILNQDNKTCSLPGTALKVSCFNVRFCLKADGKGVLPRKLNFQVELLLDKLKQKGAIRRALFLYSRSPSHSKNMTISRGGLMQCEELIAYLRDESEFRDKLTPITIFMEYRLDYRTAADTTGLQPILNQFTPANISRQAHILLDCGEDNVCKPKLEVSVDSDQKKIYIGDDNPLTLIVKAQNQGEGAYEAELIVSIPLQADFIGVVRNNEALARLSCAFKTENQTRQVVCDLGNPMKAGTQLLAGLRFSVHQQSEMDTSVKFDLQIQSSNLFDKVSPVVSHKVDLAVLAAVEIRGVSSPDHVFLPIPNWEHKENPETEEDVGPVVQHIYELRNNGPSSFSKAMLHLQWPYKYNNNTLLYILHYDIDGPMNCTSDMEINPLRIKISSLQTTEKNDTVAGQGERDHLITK
Chain of human αvβ3 receptor (P06756 891-1048 limits assumed): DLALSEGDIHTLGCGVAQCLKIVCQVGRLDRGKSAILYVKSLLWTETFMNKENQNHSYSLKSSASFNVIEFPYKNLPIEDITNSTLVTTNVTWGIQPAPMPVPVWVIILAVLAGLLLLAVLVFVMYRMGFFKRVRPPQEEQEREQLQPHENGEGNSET
Chain of human αvβ3 receptor (P05106 27-788): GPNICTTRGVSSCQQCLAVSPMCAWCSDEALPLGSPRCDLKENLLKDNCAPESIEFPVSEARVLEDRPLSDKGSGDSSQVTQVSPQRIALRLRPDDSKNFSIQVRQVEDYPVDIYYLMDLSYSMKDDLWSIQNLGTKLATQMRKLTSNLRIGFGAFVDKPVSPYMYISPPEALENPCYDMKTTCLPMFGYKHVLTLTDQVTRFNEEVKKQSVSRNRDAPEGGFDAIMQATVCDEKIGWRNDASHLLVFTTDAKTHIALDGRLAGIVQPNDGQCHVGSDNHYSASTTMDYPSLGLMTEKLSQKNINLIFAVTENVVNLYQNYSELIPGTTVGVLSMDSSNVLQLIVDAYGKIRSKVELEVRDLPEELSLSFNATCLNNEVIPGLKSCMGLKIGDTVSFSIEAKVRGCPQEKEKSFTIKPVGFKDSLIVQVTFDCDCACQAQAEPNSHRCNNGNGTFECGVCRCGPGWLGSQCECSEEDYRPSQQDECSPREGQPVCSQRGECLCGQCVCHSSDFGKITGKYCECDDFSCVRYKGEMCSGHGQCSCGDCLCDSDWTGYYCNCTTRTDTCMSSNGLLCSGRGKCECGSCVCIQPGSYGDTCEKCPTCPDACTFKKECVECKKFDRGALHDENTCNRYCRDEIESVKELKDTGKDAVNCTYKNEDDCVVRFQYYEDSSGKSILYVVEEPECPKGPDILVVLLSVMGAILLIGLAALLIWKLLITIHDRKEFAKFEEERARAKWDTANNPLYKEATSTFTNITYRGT

Consider `CC(C)(C)c1ccc(S(=O)(=O)NC(Cc2cc3cc(CCC(=O)NC4=NCCCN4)ccc3o2)C(=O)O)cc1` (stereo not drawn) [Example 9, α-[[[4-(1,1-dimethylethyl)phenyl]sulphonyl]amino]-5-(3-oxo-3-[(1,4,5,6-tetrahydro-2-pyrimidinyl)amino]propyl]-2-benzofuranpropanoic acid], for which, under setting [1], the IC50 turned out to be 15 nM.

Regarding `O=C(CCc1ccc2oc(CC(NS(=O)(=O)c3cccc4ccccc34)C(=O)O)cc2c1)NC1=NCCCN1` (stereo not drawn) [Example 13, α-[(1-naphthalenylsulphonyl)amino]-5-[3-oxo-3-[(1,4,5,6-tetrahydro-2-pyrimidinyl)amino]propyl]—2-benzofuranpropanoic acid], the IC50 under setting [1] stood at 5.5 nM.

Take `O=C(CCc1ccc2oc(CC(NS(=O)(=O)NC(=O)OCc3ccccc3)C(=O)O)cc2c1)NC1=NCCCN1` (centres unmarked) [Example 7]: under setting [1], the IC50 is 10 nM.

For the compound `CCCS(=O)(=O)NC(Cc1cc2cc(CCC(=O)NC3=NCCCN3)ccc2o1)C(=O)O` (centres unmarked) [Example 11], the IC50 under setting [1] worked out at 5.7 nM.

For `O=C(CCc1ccc2oc(CC(NS(=O)(=O)NCc3ccccc3)C(=O)O)cc2c1)NC1=NCCCN1` (centres unmarked) [Example 8, Mono(trifluoroacetate) ofα-[[[(phenylmethyl)-amino]sulphonyl]amino]-5-[3-oxo-3-[(1,4,5,6-tetrahydro-2-pyrimidinyl)amino]propyl]-2-benzofuranpropanoic acid], the IC50 under setting [1] came out at 8.7 nM.

As to `CS(=O)(=O)NC(Cc1cc2cc(CCC(=O)NC3=NCCCN3)ccc2o1)C(=O)O` (centres unmarked) [Example 12], under setting [1], the IC50 was found to be 6.7 nM.

With `O=C(CCc1ccc2oc(CC(NS(=O)(=O)NC(=O)OCC34CC5CC(CC(C5)C3)C4)C(=O)O)cc2c1)NC1=NCCCN1` (stereo not drawn) [Example 6, 5-[3-oxo-3-[(1,4,5,6-tetrahydro-2-pyrimidinyl)amino]-propyl]-α-[[[[[(tricyclo [2.3.1.1^3,7]dec-1-yl)methoxy]-carbonyl]amino]sulphonyl]amino]-2-benzofuranpropanoic acid], under setting [1], the IC50 was 65 nM.

Regarding `CC(C)c1ccc(S(=O)(=O)NC(Cc2cc3cc(CCC(=O)NC4=NCCCN4)ccc3o2)C(=O)O)cc1` (stereo not drawn) [Example 10, α-[[[4-(1-methylethyl)phenyl]sulphonyl]amino]-5-(3-oxo-3-[(1,4,5,6-tetrahydro-2-pyrimidinyl)amino]propyl]-2-benzofuranpropanoic acid], the IC50 under setting [1] is 9.1 nM.

Regarding `O=C(CCc1ccc2oc(CC(NC(=O)OCC34CC5CC(CC(C5)C3)C4)C(=O)O)cc2c1)NC1=NCCCN1` (stereo not drawn) [Example 5, Mono(trifluoroacetate) of 5-[3-oxo-3-[(1,4,5,6-tetrahydro-2-pyrimidinyl)amino]propyl]-α-[[[(tricyclo[3.3.1.1^3,7]dec-1-yl)methoxy]carbonyl]amino]-2-benzofuranpropanoic acid], the IC50 under setting [1] came to 45 nM.

Take `O=C(CCc1ccc2oc(CC(NC(=O)OCc3ccccc3)C(=O)O)cc2c1)NC1=NCCCN1` (stereo not drawn) [Example 1, 5-[3-oxo-3-[(1,4,5,6-tetrahydro-2-pyrimidinyl)amino)propyl]-α-[[(phenylmethoxy)carbonyl]-amino]-2-benzofuranepropanoic acid]: the IC50 under setting [1] amounted to 9 nM.

In turn, `CC(C)OC(=O)C(Cc1cc2cc(CCC(=O)NC3=NCCCN3)ccc2o1)NS(=O)(=O)c1cccc2ccccc12` (centres unmarked) [Example 14] had an IC50 of 3700 nM.
